Patent US12264163B2, “Compounds and methods for treating fibrotic pathologies” (Mayo Foundation for Medical Education and Research, priority 2019, dated 2025)
pIC50: −log10 of the molar value. Where a name gives a salt, the structure may show the parent alone.

Columns and labels:
YAP/TAZ [1] = test: YAP/TAZ nuclear localization in IPF patient-derived lung fibroblasts treated with dopaminergic agonists; format: cell-based, human; conditions: for Nuclear localization (% of total cells): 10 μM, 2 hours
Description: IPF patient-derived lung fibroblasts cells treated 2 hours prior to fixation with diverse dopaminergic agonists (10 μM). N=4 different patient samples. % nuclear localization of YAP/TAZ was determined using automated imaging software. Scale bar represents 100 μm.
(§1) Media was then exchanged for the indicated conditions for each experiment. […] Cells or tissue sections were incubated overnight with mouse monoclonal antibody against αSMA (Sigma-Aldrich F3777), and/or a rabbit monoclonal antibody against YAP/TAZ (Cell Signaling D24E4) diluted 1:200 in PBS with 1% BSA. Cells were then washed and exposed to flourescence-conjugated secondary antibodies (Invitrogen) diluted 1:1000 and DAPI (Thermo Fisher Scientific). Images were taken with a Cytation5 (BioTek) microscope. For scoring αSMA positive cells (FIG. 12), an observer blinded to the treatment conditions counted αSMA-positive cells using a visual threshold for bright fibrous staining; a minimum of 200 cells was counted for each condition. YAP/TAZ localization was quantified (FIGS. 6-10, 24-26, and 29-30) using Gen5 (Biotek) software. Images were taken at 4× magnification of both DAPI and YAP/TAZ staining. […] Quantification of double positive (YAP/TAZ and αSMA) cells from lung tissue sections (FIG. 17-21) was performed similarly; however separate thresholds were established for both YAP/TAZ and αSMA. A minimum of 4000 cells was quantified for each mouse.

αSMA [2] = test: αSMA intensity (fibroblast activation) in IPF patient-derived lung fibroblasts + TGFβ, dopaminergic agonist library; format: cell-based, human; conditions: 1 μM + TGFβ, 72 hours
Description: as §1

CTGF, COL1A1, ACTA2, FN1 = test: Profibrotic / matrix remodeling gene expression by qPCR in fibroblasts; format: cell-based, human; conditions: for profibrotic gene expression / effect of D1 antagonist on DHX's inhibition of YAP/TAZ target genes: IMR-90 lung fibroblasts; for profibrotic gene expression: 24 hours
Description: Genes which encode Connective tissue growth factor (CTGF), Collagen I (COL1A1), αSMA (ACTA2), and Fibronectin (FN1) are reduced by 24 hour treatment with DHX (10 μM), +/−SCH 39166 (3 μM). N=3 (****p<0.0001, ***p<0.001, *p<0.05 vs. 0.1% DMSO vehicle control)
IPF patient-derived fibroblasts cultured in media containing 0.1% FBS were stimulated for 24 hours with 2 ng/mL TGFβ and 10 μM DHX prior to RNA isolation. Genes which encode for ECM crosslinking: transglutaminase 2 (TGM2), lysyl oxidase and lysyl oxidase-like enzymes (LOX and LOXL1-4), ECM degradation: uPA (PLAU), tPa (PLAT), cathepsin K (CTSK), and matrix metalloprotease-14 (MMP14) and ECM protease inhibitors: metalloprotease inhibitor 3 (TIMP3), and plasminogen activator inhibitor 1 (SERPINE1) were measured. N=3. (****p<0.0001, ***p<0.001, **p<0.01, *p<0.05 vs. 0.1% DMSO vehicle control non-TGFβ treated), (++++p<0.0001, ++p<0.01, +p<0.05 vs. 0.10% DMSO vehicle control TGFβ treated).
For all other in vitro experiments, cells were treated as indicated prior to RNA isolation using RNeasy Plus Mini Kit (Qiagen) according to manufacturer's instructions. Isolated RNA (250 ng) was then used to synthesize cDNA using SuperScript VILO (Invitrogen). Quantitative PCR was performed using FastStart Essential DNA Green Master (Roche) and analyzed using a LightCycler 96 (Roche). Data are expressed as a fold change by ΔΔCt relative to GAPDH. For in vivo experiments, tissue was immediately frozen, and stored at −80° C. RNA isolation, cDNA synthesis, and qPCR analysis were performed as above.

D1 receptor = conditions: cited from earlier work
YAP/TAZ [3] = test: YAP/TAZ nuclear localization in adult lung fibroblasts, dose response (Cytation 5); format: cell-based; conditions: Homo sapiens, Fibroblast, 2 h, adult lung fibroblasts sparsely plated, treated 2 hours; read-out: IC50, inhibition of YAP/TAZ nuclear localization
Description: Adult lung fibroblasts (N=2) sparsely plated into 96-well plates. Treated for 2 hours with compounds prior to fixing and immunostaining for YAP/TAZ.
(§2) Immunofluorescence Microscopy: Cells were plated into 96 well plates (Corning 3603) in their specific growth media and allowed to attach (8 hours). Media was then exchanged for the indicated conditions for each experiment. Cells were fixed in 3.7% formalin (Sigma-Aldrich), permeabilized in 0.25% Triton X-100 (Sigma-Aldrich) and then blocked with 1% BSA for 1 h. Cells or tissue sections were incubated overnight with mouse monoclonal antibody against αSMA (Sigma-Aldrich F3777), and/or a rabbit monoclonal antibody against YAP/TAZ (Cell Signaling D24E4) diluted 1:200 in PBS with 1% BSA. Cells were then washed and exposed to flourescence-conjugated secondary antibodies (Invitrogen) diluted 1:1000 and DAPI (Thermo Fisher Scientific). Images were taken with a Cytation5 (BioTek) microscope. For scoring αSMA positive cells (FIG. 12), an observer blinded to the treatment conditions counted αSMA-positive cells using a visual threshold for bright fibrous staining; a minimum of 200 cells was counted for each condition. YAP/TAZ localization was quantified (FIGS. 6-10, 24-26, and 29-30) using Gen5 (Biotek) software. Images were taken at 4× magnification of both DAPI and YAP/TAZ staining. […] Quantification of double positive (YAP/TAZ and αSMA) cells from lung tissue sections (FIG. 17-21) was performed similarly; however separate thresholds were established for both YAP/TAZ and αSMA. A minimum of 4000 cells was quantified for each mouse.

[4] = system: IPF patient derived fibroblasts; test: Traction force microscopy of IPF patient-derived fibroblasts; format: cell-based, human; conditions: IPF fibroblasts on 6.4 kPa matrices
Description: Traction Force Microscopy: Traction analysis was conducted as previously described. […] IPF patient derived fibroblasts were plated on the gels overnight and treated as indicated before traction force measurements. Images of gel surface-conjugated fluorescent beads were acquired for each cell before and after trypsinization using a Nikon ECLIPSE Ti microscope at ×10 magnification. Traction forces were estimated by measuring bead displacement fields and computing corresponding traction fields using TractionsForAll (freely distributed program that calculates 2-D tractions exerted by an adherent cell on its substrate).

αSMA [5] = test: TGFβ-induced αSMA+ stress fiber formation in fibroblasts; format: cell-based, human; conditions: IPF-patient derived fibroblasts, TGFβ 48 hours, then dopamine 1 μM + TGFβ 24 hours
Description: Media was then exchanged for the indicated conditions for each experiment. Cells were fixed in 3.7% formalin (Sigma-Aldrich), permeabilized in 0.25% Triton X-100 (Sigma-Aldrich) and then blocked with 1% BSA for 1 h. Cells or tissue sections were incubated overnight with mouse monoclonal antibody against αSMA (Sigma-Aldrich F3777), and/or a rabbit monoclonal antibody against YAP/TAZ (Cell Signaling D24E4) diluted 1:200 in PBS with 1% BSA. Cells were then washed and exposed to flourescence-conjugated secondary antibodies (Invitrogen) diluted 1:1000 and DAPI (Thermo Fisher Scientific). Images were taken with a Cytation5 (BioTek) microscope. For scoring αSMA positive cells (FIG. 12), an observer blinded to the treatment conditions counted αSMA-positive cells using a visual threshold for bright fibrous staining; a minimum of 200 cells was counted for each condition. YAP/TAZ localization was quantified (FIGS. 6-10, 24-26, and 29-30) using Gen5 (Biotek) software. Images were taken at 4× magnification of both DAPI and YAP/TAZ staining. […] Quantification of double positive (YAP/TAZ and αSMA) cells from lung tissue sections (FIG. 17-21) was performed similarly; however separate thresholds were established for both YAP/TAZ and αSMA. A minimum of 4000 cells was quantified for each mouse.

YAP/TAZ [6] = test: YAP/TAZ nuclear localization in IMR-90 and other fibroblasts / mesenchymal cells (immunofluorescence); format: cell-based, human; conditions: IMR-90 lung fibroblasts
Description: Selective agonists of dopamine receptor D1 with varying efficacy inhibit YAP/TAZ nuclear localization; this effect can be overcome by treatment with a DRD1 receptor antagonist (SCH 39166, 3 μM), (Dihydrexidine, 10 μM). IMR-90 cells treated 2 hours prior to fixation. N=4 (****p<0.0001 vs. 0.10% DMSO vehicle control). Scale bar represents 100 μm.
In each case DHX treatment (10 μM) can reverse this effect on YAP/TAZ. IMR-90 cells plated densely onto plastic cell culture plates for 24 hours in media containing 0.1% FBS, treated for 2 hours prior to fixation. N=4 (****p<0.0001 vs. 0.1% DMSO vehicle control), (++++p<0.0001 vs. the respective stimulated agonist ET-1, LPA, or 5-HT). Scale bar represents 100 μm.
Mesenchymal cells derived from lung (IMR-90 and IPF-FBs) hepatic stellate cells (HSC), human adult cardiac fibroblasts, (HACF) and human dermal fibroblasts (HDF) were plated densely (Confluent) or sparsely (Control and all remaining conditions) onto plastic cell culture plates for 24 hours in media containing 0.10% FBS, treated for 2 hours with Rho kinase inhibitor Y27632, adenylate cyclase activator forskolin and DHX. N=4, Cells that were positive for nuclear YAP/TAZ were quantified by automated image analysis.
as §2

cAMP = cAMP assay (cAMP-Glo) in fibroblasts; format: cell-based, human; conditions: IMR-90 lung fibroblasts
Description: FIG. 9 contains a bar graph showing cAMP measured in IPF patient-derived fibroblasts treated for 20 minutes with DHX (10 μM)+/−SCH 39166 (3 μM). N=3 (**p<0.01 vs. 0.1% DMSO vehicle control).
N=3, IMR-90 lung fibroblasts.
cAMPAssay: IPF patient derived fibroblasts were plated in EMEM containing 10% FBS overnight. […] 20 minutes prior to cell lysis media was removed and cells were treated with “induction buffer” containing nonselective phosphodiesterase inhibitors and the indicated concentration of compound(s). Luminescence was measured on a Flexstation 3 (Molecular Devices) plate reader.

Structure (SMILES)	Nuclear localization (% of total cells) (YAP/TAZ [1]; IPF-1 patient fibroblasts)	Nuclear localization (% of total cells) (YAP/TAZ [1]; IPF-2 patient fibroblasts)	Nuclear localization (% of total cells) (YAP/TAZ [1]; IPF-3 patient fibroblasts)	Nuclear localization (% of total cells) (YAP/TAZ [1]; IPF-4 patient fibroblasts)	pIC50 (YAP/TAZ [3])	profibrotic gene expression (CTGF, COL1A1, ACTA2, FN1)	effect of D1 antagonist on DHX's inhibition of YAP/TAZ nuclear localization (YAP/TAZ [6])	effect of D1 antagonist on DHX's elevation of cAMP (cAMP)	effect of D1 antagonist on DHX's inhibition of YAP/TAZ target genes (CTGF, COL1A1, ACTA2, FN1)	other results
Cl.NC[C@@H]1O[C@H](c2ccccc2)Cc2c1ccc(O)c2O [A 68930•HCl, A 68930]	33.13 % of total cells	30.59 % of total cells	26.82 % of total cells	10.26 % of total cells	–	–	–	–	–	αSMA intensity (% of DMSO control) (αSMA [2]; IPF-1 patient fibroblasts): 12.4 % of DMSO control; αSMA intensity (% of DMSO control) (αSMA [2]; IPF-2 patient fibroblasts): 8.111 % of DMSO control; αSMA intensity (% of DMSO control) (αSMA [2]; IPF-3 patient fibroblasts): 3.245 % of DMSO control; αSMA intensity (% of DMSO control) (αSMA [2]; IPF-4 patient fibroblasts): 7.35 % of DMSO control; profibrotic gene expression in human dermal fibroblasts (CTGF, COL1A1, ACTA2, FN1; human dermal fibroblasts, 24 hours +/− 2 ng/mL TGFβ): blocks profibrotic gene expression; efficacy at elevating cAMP (D1 receptor) (D1 receptor): lacks full efficacy to elevate cAMP
NCC1OC(C2CCCOC2)Cc2c1ccc(O)c2O (stereo not drawn) [CTC-1]	–	–	–	–	6.55	inhibition of profibrotic gene expression	–	–	–	–
CC(C)(CO)C1Cc2c(ccc(O)c2O)C(CN)O1 (stereo not drawn) [CTC-2]	–	–	–	–	6.31	inhibition of profibrotic gene expression	–	–	–	–
NCCc1ccc(O)c(O)c1 [Dopamine•HCl, Dopamine]	39.85 % of total cells	59.29 % of total cells	49.67 % of total cells	49.51 % of total cells	–	–	–	–	–	YAP/TAZ nuclear localization (YAP/TAZ [1]; low density IPF-patient derived fibroblasts on tissue culture plastic): inhibits YAP/TAZ nuclear localization; contractile forces (traction force microscopy) [4]: attenuates IPF fibroblast contractility; αSMA+ stress fiber formation (αSMA [5]): reverses αSMA+ stress fiber formation
CN1CCc2ccccc2Cc2[nH]c3ccccc3c2CC1 [LE-300]	–	–	–	–	–	–	block DHX's inhibition of YAP/TAZ nuclear localization	block DHX's elevation of cAMP	block DHX's inhibition of YAP/TAZ target genes	–
CN1CCc2cc(Cl)c(O)cc2[C@H]2c3ccccc3CC[C@@H]21 [SCH-39166]	–	–	–	–	–	–	block DHX's inhibition of YAP/TAZ nuclear localization	block DHX's elevation of cAMP	block DHX's inhibition of YAP/TAZ target genes	–
